28 compounds from patent US20200087258A1, “INHIBITOR OF CITRATE TRANSPORTER AND THEIR USE IN THERAPY” (Eternygen GmbH, priority 2017, published 2020) can be followed below.

pIC50: −log10 of the molar value. Bounds are passed on as bounds.

Chain of INDY (Q86YT5 whole entry, the tested form may be a part): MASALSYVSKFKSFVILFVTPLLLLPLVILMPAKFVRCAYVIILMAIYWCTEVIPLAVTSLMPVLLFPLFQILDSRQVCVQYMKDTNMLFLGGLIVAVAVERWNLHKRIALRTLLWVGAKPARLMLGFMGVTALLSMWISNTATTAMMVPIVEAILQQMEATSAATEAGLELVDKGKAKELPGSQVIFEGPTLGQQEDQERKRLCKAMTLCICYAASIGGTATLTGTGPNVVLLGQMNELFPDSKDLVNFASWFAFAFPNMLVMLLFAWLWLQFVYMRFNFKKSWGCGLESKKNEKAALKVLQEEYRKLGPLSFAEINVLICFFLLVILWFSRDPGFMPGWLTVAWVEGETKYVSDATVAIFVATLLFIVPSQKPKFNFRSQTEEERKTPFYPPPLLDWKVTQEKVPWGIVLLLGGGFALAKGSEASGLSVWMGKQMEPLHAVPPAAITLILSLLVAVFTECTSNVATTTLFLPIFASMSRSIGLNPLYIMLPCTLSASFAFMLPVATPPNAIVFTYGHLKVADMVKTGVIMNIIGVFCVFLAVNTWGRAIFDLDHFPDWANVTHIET

This assay addresses INDY (Homo sapiens, UniProt Q86YT5). Put plainly: 14C-citrate uptake in HEK293 cells overexpressing recombinant human INDY (NaCT). The assay is classed as cell-based. Also on record: expressed in transfected cells; host or cells: HEK293. On the procedure: The compound was obtained by screening of a library containing more than 50,000 lead-like compounds and fragments. The library was tested using a functional citrate uptake assay with HEK293 cells overexpressing recombinant human INDY. The following hit confirmation was conducted in the same assay system. To confirm the activity of selected compounds on the target INDY another cell assay was conducted. In this assay system citrate uptake was measured using HepG2 cells which endogenously express INDY. Furthermore selectivity of selected compounds was tested for two other transporters in different assay systems. The first transporter was the glutamate transporter GLT-1 tested in a glutamate uptake assays using HEK293 cells overexpressing recombinant human GLT-1. The second transporter was the glucose transporter GLUT1 tested in a glucose uptake assay using Huh-7 cells which endogenously express GLUT1. Compounds were considered to be selective with an at least 5-fold higher activity for INDY than for the other two transporters.
Cells were maintained in cell medium using cell culture grade flasks (CellSTACK Corning, 500 cm2 dishes or T175 depending on cell number). The selection antibiotic and G418 (800 μg/ml) was added during cultivation but not for seeding into assay plates. For splitting, cells were washed with PBS (w/o Ca2+, Mg2+, phenol red) and detached with Trypsin/EDTA. Throughout cultivation cells were kept sub-confluent. Detached cells (50,000 cells/well) were seeded in 96-well plates (white, clear bottom from Corning #655098) and incubated over night before usage in the assay. The following media were used. For HEK293 cells expressing INDY MEM (PAA)+10% FCS+1×P/S+2 mM L-Gln; for HEK293 cells expressing GLT-1 DMEM (Gibco)+10% FCS+400 µg/ml G418; for Huh7 cells DMEM (Gibco)+10% FCS+2 mM L-Gin (+1×P/S); for HepG2 cells MEM (PAA, Cat # E15-024)+10% FCS+2 mM L-Gin+1×NEAA+1 mM Na-Pyruvat
The following assay buffers for the particular uptake reaction were used. Citrate uptake buffer: 120 mM NaCl, 5.4 mM KCl, 0.8 mM MgSO4, 5 mM glucose, 1.8 mM CaCl2, 25 mM Hepes, 25 mM MES, pH 6.5. Glutamate uptake buffer: HBSS, 1 mM CaCl2, 1 mM MgCl2, 20 mM Hepes pH 7.4. Glucose uptake buffer: 25 mM Hepes+25 mM MES pH 7.4, 120 mM NaCl, 5.4 mM KCl, 1.8 mM CaCl2, 0.8 mM MgSO4.
INDY mediated citrate uptake was determined in HEK293 cells. To determine the uptake of ^14C labelled citrate into cells, HEK293 cells over-expressing human NaCT were used. Cloning of human NaCT was done in analogy as described in Birkenfeld et al. (Birkenfeld et al., 2011, Cell Metabolism 14, 184-195, 2011).
Human NaCT HEK293 cells were seeded into white clear-bottom 96-well plates (50,000/well) in the presence of 4 μg/ml Poly-D-Lysine and incubated at 37° C. for 16-24 hours. On the days of the assay the plates were washed once with assay buffer using automated washing/LS 405 Selectors, BioTek ending with a buffer volume of 40 μl. Then 5 μl of compound solution in assay buffer was added and incubated for 5-30 min at 37° C. in cell incubator, HERA cell Heraeus. Afterwards 10 μl of substrate 14C-citrate ([…]/[…] per well) were added and incubated for another 20-90 min at 37° C. in cell incubator, HERAcell. Then plates were washed twice with 200 μl ice-cold assay buffer and residual volume was discarded. For cell lysis 50 μl ice-cold NaOH (100 mM) was added and incubated for 15 minutes at RT on a plate shaker. Finally, 200 μl scintillation fluid (scintillator OptiPhase Supermix, Perkin Elmer) was added. After 15 min incubation at RT without shaking, plates were measured using a TopCount reader system (Perkin Elmer). As a positive control 10 mM citrate was applied. It is possible to use this assay also in analogy in a 384-well plate format.
Usually pIC50 stands for −log10 of the IC50, conventionally taken in molar units. As to `O=C(NCc1ccccc1C(F)(F)F)C1CCN(S(=O)(=O)/C=C/c2ccccc2)CC1` [Example 11, 1-[(E)-2-phenylethenesulfonyl]-N-{[2-(trifluoromethyl)phenyl]methyl}piperidine-4-carboxamide], the pIC50 was less than 4.70.

With `N#Cc1ccc(S(=O)(=O)N2CCC(C(=O)NCc3ccccc3F)CC2)cc1` [Example 13, 1-(4-cyanobenzenesulfonyl)-N-[(2-fluorophenyl)methyl]piperidine-4-carboxamide], the pIC50 is 4.69.

On to `O=C(NCc1ccc2[nH]cnc2c1)C1CCN(S(=O)(=O)/C=C/c2ccccc2)CC1` [Example 14, N-[(1H-1,3-benzodiazol-5-yl)methyl]-1-[(E)-2-phenylethenesulfonyl]piperidine-4-carboxamide], for which the pIC50 is less than 4.70.

Regarding `O=C(NCc1ccccc1F)C1CCN(S(=O)(=O)c2ccc([N+](=O)[O-])cc2)CC1` [Example 17, N-[(2-fluorophenyl)methyl]-1-(4-nitrobenzenesulfonyl)piperidine-4-carboxamide], the negative logarithm of the IC50 (pIC50) was less than 4.70.

Consider `CS(=O)(=O)c1ccccc1CNC(=O)C1CCN(S(=O)(=O)/C=C/c2ccccc2)CC1` [Example 18, N-[(2-methanesulfonylphenyl)methyl]-1-[(E)-2-phenylethenesulfonyl]piperidine-4-carboxamide], for which the negative-log IC50 (pIC50) was less than 4.70.

As to `CC(=O)Nc1ccc(S(=O)(=O)N2CCC(C(=O)NCc3ccccc3F)CC2)cc1` [Example 20, 1-(4-acetamidobenzenesulfonyl)-N-[(2-fluorophenyl)methyl]piperidine-4-carboxamide], the negative-log IC50 (pIC50) is less than 4.70.

For `Cc1ccccc1CNC(=O)C1CCN(S(=O)(=O)/C=C/c2ccccc2)CC1` [Example 31, N-[(2-methylphenyl)methyl]-1-[(E)-2-phenylethenesulfonyl]piperidine-4-carboxamide], the negative logarithm of the IC50 (pIC50) was 4.82.

Regarding `O=C(NCc1ccccc1N1CCOCC1)C1CCN(S(=O)(=O)/C=C/c2ccccc2)CC1` [Example 40, N-{[2-(morpholin-4-yl)phenyl]methyl}-1-[(E)-2-phenylethenesulfonyl]piperidine-4-carboxamide], the pIC50 was less than 4.70.

Take `CC(C)(C)c1ccccc1S(=O)(=O)N1CCC(C(=O)NCc2ccccc2F)CC1` [Example 42, 1-(2-tert-butylbenzenesulfonyl)-N-[(2-fluorophenyl)methyl]piperidine-4-carboxamide]: the pIC50 is less than 4.70.

For `O=C(NCc1ccccc1F)C1CCN(S(=O)(=O)c2ccc(F)cc2)CC1` [Example 45, 1-(4-fluorobenzenesulfonyl)-N-[(2-fluorophenyl)methyl]piperidine-4-carboxamide], the negative-log IC50 (pIC50) is 4.93.

As for `COc1ccc(CNC(=O)C2CCN(S(=O)(=O)/C=C/c3ccccc3)CC2)c(F)c1` [Example 48, N-[(2-fluoro-4-methoxyphenyl)methyl]-1-[(E)-2-phenylethenesulfonyl]piperidine-4-carboxamide], the pIC50 was less than 4.70.

As to `CC(C)(C)c1ccc(S(=O)(=O)N2CC(C(=O)NCc3ccccn3)C2)cc1` [Example 51, 1-(4-tert-butylbenzenesulfonyl)-N-[(pyridin-2-yl)methyl]azetidine-3-carboxamide], the negative-log IC50 (pIC50) was 4.84.

In the case of `O=C(NCc1ccccc1F)C1CN(S(=O)(=O)c2ccc(C(F)(F)F)cc2)C1` [Example 52, N-[(2-fluorophenyl)methyl]-1-[4-(trifluoromethyl)benzenesulfonyl]azetidine-3-carboxamide], the pIC50 was less than 4.70.

For the compound `N#Cc1ccccc1CNC(=O)C1CCN(S(=O)(=O)/C=C/c2ccccc2)CC1` [Example 53, N-[(2-cyanophenyl)methyl]-1-[(E)-2-phenylethenesulfonyl]piperidine-4-carboxamide], the pIC50 was 4.80.

Regarding `CC(C)Oc1ccccc1CNC(=O)C1CCN(S(=O)(=O)/C=C/c2ccccc2)CC1` [Example 54, 1-[(E)-2-phenylethenesulfonyl]-N-{[2-(propan-2-yloxy)phenyl]methyl}piperidine-4-carboxamide], the negative-log IC50 (pIC50) was less than 4.70.

With `O=C(NCc1ccc(F)cc1)C1CCN(S(=O)(=O)/C=C/c2ccccc2)CC1` [Example 56, N-[(4-fluorophenyl)methyl]-1-[(E)-2-phenylethenesulfonyl]piperidine-4-carboxamide], the pIC50 is less than 4.70.

For `COc1ccc(S(=O)(=O)N2CCC(C(=O)NCc3ccccn3)CC2)c(OC)c1` [Example 61, 1-(2,4-dimethoxybenzenesulfonyl)-N-[(pyridin-2-yl)methyl]piperidine-4-carboxamide], the pIC50 is less than 4.70.

Regarding `O=C(NCc1ccccn1)C1CCN(S(=O)(=O)c2c(Cl)cccc2Cl)CC1` [Example 63, 1-(2,6-dichlorobenzenesulfonyl)-N-[(pyridin-2-yl)methyl]piperidine-4-carboxamide], the pIC50 was less than 4.70.

Consider `CN(C)c1ccc(S(=O)(=O)N2CCC(C(=O)NCc3ccccn3)CC2)cc1` [Example 64, 1-[4-(dimethylamino)benzenesulfonyl]-N-[(pyridin-2-yl)methyl]piperidine-4-carboxamide], for which the negative logarithm of the IC50 (pIC50) was less than 4.70.

On to `CN(C)c1ccc(S(=O)(=O)N2CCC(C(=O)NCc3ccccc3F)CC2)cc1` [Example 65, 1-[4-(dimethylamino)benzenesulfonyl]-N-[(2-fluorophenyl)methyl]piperidine-4-carboxamide], for which the pIC50 is less than 4.70.

For `COC(=O)c1ccccc1CNC(=O)C1CCN(S(=O)(=O)/C=C/c2ccccc2)CC1` [Example 66, methyl 2-[({1-[(E)-2-phenylethenesulfonyl]piperidin-4-yl}formamido)methyl]benzoate], the pIC50 is 4.89.

Regarding `O=C(NCc1ccccn1)C1CCN(S(=O)(=O)c2ccc(-c3ccccc3)cc2)CC1` [Example 68, 1-{[1,1′-biphenyl]-4-sulfonyl}-N-[(pyridin-2-yl)methyl]pipendine-4-carboxamide], the pIC50 is 4.71.

Turning to `O=C(NCc1ccccn1)C1CCN(S(=O)(=O)c2ccc(N3CCCC3)cc2)CC1` [Example 70, N-[(pyridin-2-yl)methyl]-1-[4-(pyrrolidin-1-yl)benzenesulfonyl]pipendine-4-carboxamide], the pIC50 was less than 4.70.

On to `O=C(NCc1ccccn1)C1CCN(S(=O)(=O)c2ccccc2Cl)CC1` [Example 71, 1-(2-chlorobenzenesulfonyl)-N-[(pyridin-2-yl)methyl]pipendine-4-carboxamide], for which the pIC50 was 4.84.

Regarding `O=C(NCc1ccccc1F)C1CCN(S(=O)(=O)c2ccc(O)cc2)CC1` [Example 72, N-[(2-fluorophenyl)methyl]-1-(4-hydroxybenzenesulfonyl)pipendine-4-carboxamide], the pIC50 was less than 4.70.

With `O=C(NCc1ccccn1)C1CCN(S(=O)(=O)c2cccc([N+](=O)[O-])c2)CC1` [Example 76, 1-(3-nitrobenzenesulfonyl)-N-[(pyridin-2-yl)methyl]pipendine-4-carboxamide], the pIC50 was less than 4.70.

Regarding `NC(=O)c1ccc(S(=O)(=O)N2CCC(C(=O)NCc3ccccc3F)CC2)cc1` [Example 77, 1-(4-carbamoylbenzenesulfonyl)-N-[(2-fluorophenyl)methyl]pipendine-4-carboxamide], the pIC50 was less than 4.70.

Regarding `NC(=O)c1ccccc1CNC(=O)C1CCN(S(=O)(=O)c2cc(Cl)cc(Cl)c2)CC1` [Example 80, N-[(2-carbamoylphenyl)methyl]-1-(3,5-dichlorobenzenesulfonyl)pipendine-4-carboxamide], the negative logarithm of the IC50 (pIC50) was less than 4.70.
